Results: patent US20250017938A1, “COMBINATION THERAPIES OF FASN INHIBITORS WITH THYROID HORMONE RECEPTOR AGONISTS” (Sagimet Biosciences Inc., priority 2023, published 2025)
Values belong to the molecule of their own block, whether it stands above or below them.

Key:
[1] = target: FASN enzyme isolated from SKBr3 cells (Homo sapiens (Human), UniProt P49327); test: FASN biochemical activity (fluorescence measurement of CoA release, CPM dye)
[2] = system: primary isolated human stellate cells (HSC); test: Primary human hepatic stellate cells stimulated with TGF-β1, total collagen (in vitro fibrosis study); format: cell-based; settings: primary human hepatic stellate cells, 10 ng/ml TGF-β, 4 days
[3] = system: Male C57BL/6J Gubra-Amylin-MASH (GAN) diet-induced obese mice; test: Gubra-Amylin-MASH (GAN) diet-induced obese mice with biopsy-confirmed MASH, 6 weeks treatment; format: in vivo, mouse; settings: 6-week treatment; for response rate (RR) for reduction of NAS ≥2-points: TVB-3664 5 mg/kg, resmetirom 3 mg/kg PO QD
Experimental: This study was designed to evaluate FASN inhibitor alone and in combination with RES on liver histology in biopsy-confirmed MASH mice.
Method: Male C57BL/6J Gubra-Amylin-MASH (GAN) diet-induced obese mice with histologically confirmed NAS (≥5) and fibrosis stage (F1-F3) were randomized and treated with either TVB-3664 (a surrogate FASN inhibitor for denifanstat, 5 mg/kg, PO, QD) or resmetirom (RES; MGL-3196)(3 mg/kg, PO, QD) individually or in combination for 6 weeks (n=10-12 for each group, Gubra, Denmark). Treatment groups are NC (normal chow diet control); VEH (MASH vehicle control); FASN (TVB-3664, FASN inhibitor, surrogate for denifanstat); RES (resmetirom) and COMBO (combination of TVB-3664 and resmetirom).

[4] = system: Male Ldlr -/-. Leiden mice fed with fast food diet (FFD); test: LDL receptor knockout (Ldlr-/-.Leiden) NASH mice on fast food diet, 10 weeks treatment; format: in vivo, mouse; settings: for plasma ALT/AST / plasma total cholesterols / plasma triglycerides: TVB-3664 5 mg/kg, resmetirom 3 mg/kg PO QD alone or in combination, 4 weeks, sustained to 10 weeks; for LDL-C / VLDL-C: lipoprotein analysis
Experimental: This study was designed to evaluate FASN inhibitor alone and in combination with resmetirom on plasma biomarkers and liver histology in LDL receptor knockout (Ldlr−/−. Leiden) NASH mice. FASN inhibitor and resmetirom were also evaluated in vitro in hepatic stellate cells (HSCs) for direct anti-fibrotic effects.
Male Ldlr −/−. Leiden mice were fed with fast food diet (FFD) for 18 weeks to induce NASH features and treated with either TVB-3664 (a surrogate FASN inhibitor for denifanstat, 5 mg/kg, PO, QD) or THRb agonist resmetirom (MGL-3196, 3 mg/kg, PO, QD) alone or in combination for 10 weeks. Endpoints included liver enzymes, lipids and liver histology. Primary human HSCs were stimulated by TGF-b1 and treated with denifanstat or resmetirom at various concentrations (TNO, Netherlands).

[5] = system: primary isolated human stellate cells (HSC); test: Primary human hepatic stellate cells stimulated with TGF-β1, PAI-1 secretion; format: cell-based; settings: primary human HSCs, TGF-b1-stimulated
[6] = system: NASH/MASH; settings: NASH/MASH trials; cited from earlier work
[7] = system: C57BL/6J mice fed a high-fat/fructose/cholesterol diet; test: Reversal of established diet-induced, biopsy-confirmed NASH in mice (HFFCD 44 weeks + 8 weeks treatment); format: in vivo, mouse; settings: pirfenidone co-administered with Compound 002-386, 8 weeks
From the text: C57BL/6J mice were fed a high-fat/fructose/cholesterol diet (HFFCD) for 44 weeks. For an additional eight weeks, animals continued a high-fat/fructose/cholesterol diet and received oral once-per-day treatments of either Compound 002-386, the anti-fibrotic pirfenidone, both Compound 002-386 and pirfenidone, or vehicle control. At the end of the study, analyses included histological assessment (NAFLD Activity Score (NAS) and Fibrosis Stage), gene expression (liver) total triglyceride and cholesterol content (liver and plasma), levels of alanine transaminase (ALT), and aspartate transaminase (AST) in plasma and serum cytokine levels. […]
Blood and plasma assays (triglycerides (TG), total-cholesterol (TC), alanine transaminase (ALT), aspartate transaminase (AST)): Blood samples were collected in heparinized tubes and plasma was separated and stored at −80° C. until analysis. TG, TC, ALT, AST were measured using commercial kits (Roche Diagnostics, Germany) on the Cobas™ C-501 autoanalyzer according to the manufacturer's instructions.
NAFLD activity score (NAS) and fibrosis stage: Liver samples were fixed in formalin, paraffin embedded, and sections were stained with hematoxylin and eosin (H&E) and Sirius Red. Samples were scored for NAS and fibrosis stage (outlined below) using of the clinical criteria outlined by Kleiner et al. 2005. […]

[8] = system: NASH/MASH; settings: cited from earlier work

IC50 [1]: 30 nM
SMILES: N#Cc1ccc(C2(F)CCN(C(=O)c3ccc(Cl)c(NC(=O)c4ccc(N5CCC5)nc4)c3)CC2)nc1 [Compound 001-57]

IC50 [1]: 300 nM
SMILES: CCc1cc(C)c(-c2ncc(C3CCOC3)[nH]2)cc1C(=O)N1CCC(c2ccc(C#N)cc2)CC1 (stereo not shown) [Compound 001-192]

IC50 [1]: 300 nM
SMILES: CCc1nnc(-c2cc(C(=O)N3CCC(c4ccc(C#N)cc4)CC3)c(C)cc2C2CC(F)(F)C2)o1 [Compound 001-231]

IC50 [1]: > 50000 nM
SMILES: CC(C)CNC(=O)Nc1cc(C(=O)N2CCC(c3ccc(C#N)cn3)CC2)cnn1 [Compound 001-305]

SMILES: CC(C)c1cc(Oc2c(Cl)cc(-n3nc(C#N)c(=O)[nH]c3=O)cc2Cl)n[nH]c1=O [Compound A, resmetirom]
collagen production [2]: did not display the same effect
lobular inflammation, 1-point RR [3]: 8%
steatosis, RR for 1-point reduction [3]: 50%

SMILES: COCc1[nH]c(C(F)(F)F)nc1-c1cc(C(=O)N2CC(c3ccc(C#N)cc3)C2)c(C)cc1C [TVB-3664]
plasma ALT/AST [4]: rapidly reduced
plasma total cholesterols [4]: rapidly reduced
plasma triglycerides [4]: rapidly reduced
LDL-C [4]: significantly reduced
VLDL-C [4]: significantly reduced
lobular inflammation, 1-point RR [3]: 42%
steatosis, RR for 1-point reduction [3]: 17%
response rate (RR) for reduction of NAS ≥2-points [3]: 33%

SMILES: Cc1nnc(-c2cc(C(=O)N3CCC(c4ccc(C#N)cc4)CC3)c(C)cc2C2CCC2)[nH]1 [denifanstat]
collagen production [2]: decreased
plasminogen 1 (PAI-1) secretion [5]: decreased
liver fat and biomarkers associated with inflammation and fibrosis [6]: improvements in liver fat and biomarkers associated with inflammation and fibrosis

SMILES: Cc1ccc(=O)n(-c2ccccc2)c1 [pirfenidone]
liver fibrosis [7]: further reduced liver fibrosis

SMILES: CC(C)c1cc(Oc2c(Cl)cc(-n3nc(C#N)c(=O)[nH]c3=O)cc2Cl)n[nH]c1=O [resmetirom]
plasminogen 1 (PAI-1) secretion [5]: not
plasma ALT/AST [4]: rapidly reduced
plasma total cholesterols [4]: rapidly reduced
plasma triglycerides [4]: rapidly reduced
LDL-C [4]: significantly reduced
VLDL-C [4]: significantly reduced
response rate (RR) for reduction of NAS ≥2-points [3]: 25%
NASH/MASH resolution and fibrosis improvement ([8]; Phase III clinical trial): significant NASH/MASH resolution and fibrosis improvement
histology response rates ([8]; human, in vivo): < 50%
